Laboratory results taken from patent publication US20050107423A1, “Quinolone antibacterial agents” (priority 2003, published 2005).
≈ marks a conversion by molar mass, not a printed value.

Columns and labels:
Experiment in all cases: Antibacterial assay, microtitration MIC (Test A)
Format in all cases: cell-based
[1] = test system: S. pneumo SV-1; settings: Gram Positive Bacteria; strain SV-1; read-out: Minimum Inhibitory Concentrations S. pneumo SV-1
Description: (§1) The compounds of the present invention were tested against an assortment of Gram-negative and Gram-positive organisms using standard microtitration techniques (Cohen et. al., Antimicrob., 1985;28:766; Heifetz, et. al., Antimicrob., 1974;6:124). The results of the evaluation are shown in Tables 1A and B, wherein “-” means no data.

[2] = test system: S pyogenes C203; settings: Gram Positive Bacteria; strain C203; read-out: Minimum Inhibitory Concentrations S pyogenes C203
Description: as §1

[3] = test system: S. aureus UC-76; settings: Staphylococcus aureus, UC76, Gram Positive Bacteria; strain UC-76; read-out: Minimum Inhibitory Concentrations S. aureus UC-76
Description: as §1

[4] = test system: E. faecalis MGH-2; settings: strain MGH-2; for MIC: Enterococcus faecalis, MGH2, Gram Positive Bacteria, read-out: Minimum Inhibitory Concentrations E. faecalis MGH-2
Description: as §1

Row | SMILES | MIC [1] [µg/mL] | MIC [2] [µg/mL] | MIC [3] [µg/mL] | MIC [4] [µg/mL] | Minimum Inhibitory Concentrations E. faecalis MGH-2 ([4]; Gram Positive Bacteria) [µg/mL]
1 | COc1c(N2CC3CC(O)C(O)C3C2)c(F)cc2c(=O)c(C(=O)O)cn(C3CC3)c12 (stereo not drawn) | 0.25 (≈ 0.597 µM) | 0.25 (≈ 0.597 µM) | 0.008 (≈ 0.0191 µM) | 0.25 (≈ 0.597 µM) | –
2 | Cc1c(N2CCC(CCO)C2)c(F)cc2c(=O)c(C(=O)O)cn(C3CC3)c12 (stereo not drawn) [drawing 341] | 0.03 (≈ 0.0801 µM) | 0.06 (≈ 0.16 µM) | 0.125 (≈ 0.334 µM) | 2 (≈ 5.34 µM) | –
3 | Cc1c(N2CCC(C(O)C(F)F)C2)c(F)cc2c(=O)c(C(=O)O)cn(C3CC3)c12 (stereo not drawn) [drawing 343] | 0.06 (≈ 0.146 µM) | 0.125 (≈ 0.305 µM) | 0.004 (≈ 0.00975 µM) | 0.06 (≈ 0.146 µM) | –
4 | COc1c(N2CCC(C3(O)CC3)C2)c(F)cc2c(=O)c(C(=O)O)cn(C3CC3)c12 (stereo not drawn) [drawing 360] | 0.125 (≈ 0.311 µM) | 0.25 (≈ 0.621 µM) | 0.015 (≈ 0.0373 µM) | 0.125 (≈ 0.311 µM) | –
5 | Cc1c(N2CCC(C(O)C(F)(F)F)C2)c(F)cc2c(=O)c(C(=O)O)cn(C3CC3)c12 (stereo not drawn) [drawing 363] | 0.25 (≈ 0.584 µM) | 0.5 (≈ 1.17 µM) | 0.0015 (≈ 0.0035 µM) | – | 0.25
6 | Cc1c(N2CCC(C(F)(F)CO)C2)c(F)cc2c(=O)c(C(=O)O)cn(C3CC3)c12 (stereo not drawn) [drawing 368] | 0.06 (≈ 0.146 µM) | 0.25 (≈ 0.609 µM) | 0.008 (≈ 0.0195 µM) | 0.125 (≈ 0.305 µM) | –
7 | Cc1c(N2CCC(C(O)C(C)(F)F)C2)c(F)cc2c(=O)c(C(=O)O)cn(C3CC3)c12 (stereo not drawn) [drawing 369] | 0.125 (≈ 0.295 µM) | 0.25 (≈ 0.589 µM) | 0.004 (≈ 0.00942 µM) | 0.25 (≈ 0.589 µM) | –
8 | COCC(O)C1CCN(c2c(F)cc3c(=O)c(C(=O)O)cn(C4CC4)c3c2C)C1 (stereo not drawn) [drawing 370] | 0.5 (≈ 1.24 µM) | 1 (≈ 2.47 µM) | 0.06 (≈ 0.148 µM) | 1 (≈ 2.47 µM) | –
9 | COc1c(N2CCC(CO)(CO)C2)c(F)cc2c(=O)c(C(=O)O)cn(C3CC3)c12 [drawing 377] | 0.25 (≈ 0.615 µM) | 0.25 (≈ 0.615 µM) | 0.06 (≈ 0.148 µM) | 0.5 (≈ 1.23 µM) | –
10 | O=C(O)c1cn(-c2ccc(F)cc2F)c2nc(N3C[C@@H](CO)[C@@H](CO)C3)c(F)cc2c1=O [drawing 398] | 0.5 (≈ 1.11 µM) | 0.5 (≈ 1.11 µM) | 0.06 (≈ 0.134 µM) | 0.5 (≈ 1.11 µM) | –
11 | Nc1nc(-n2cc(C(=O)O)c(=O)c3cc(F)c(N4C[C@@H](O)[C@@H](O)C4)nc32)c(F)cc1F [drawing 399] | 0.5 (≈ 1.14 µM) | 0.25 (≈ 0.572 µM) | 0.125 (≈ 0.286 µM) | 0.5 (≈ 1.14 µM) | –
12 | COc1c(N2C[C@@H](CO)[C@@H](CO)C2)c(F)c(N)c2c(=O)c(C(=O)O)cn(C3CC3)c12 [drawing 400] | 0.125 (≈ 0.297 µM) | 0.25 (≈ 0.593 µM) | 0.008 (≈ 0.019 µM) | 0.25 (≈ 0.593 µM) | –
13 | O=C(O)c1cn(C2CC2)c2c(Cl)c(N3C[C@@H](CO)[C@@H](CO)C3)c(F)cc2c1=O [drawing 401] | 0.125 (≈ 0.304 µM) | 0.125 (≈ 0.304 µM) | 0.004 (≈ 0.00974 µM) | 0.125 (≈ 0.304 µM) | –
14 | Nc1nc(-n2cc(C(=O)O)c(=O)c3cc(F)c(N4C[C@@H](CO)[C@@H](CO)C4)c(Cl)c32)c(F)cc1F [drawing 402] | 0.5 (≈ 1 µM) | 0.5 (≈ 1 µM) | 0.125 (≈ 0.251 µM) | 2 (≈ 4.01 µM) | –

Continued, in another order:

Row | MIC [1] [µg/mL] | MIC [2] [µg/mL] | MIC [3] [µg/mL] | MIC [4] [µg/mL] | SMILES | Minimum Inhibitory Concentrations E. faecalis MGH-2 ([4]; Gram Positive Bacteria) [µg/mL]
15 | 0.03 (≈ 0.0714 µM) | 0.06 (≈ 0.143 µM) | 0.004 (≈ 0.00951 µM) | 0.03 (≈ 0.0714 µM) | COc1c(N2CCC(C(CO)CO)C2)c(F)cc2c(=O)c(C(=O)O)cn(C3CC3)c12 (stereo not drawn) [drawing 340] | –
16 | 0.06 (≈ 0.159 µM) | 0.06 (≈ 0.159 µM) | 0.00403 (≈ 0.0107 µM) | 0.06 (≈ 0.159 µM) | COc1c(N2CCC(CO)C2)c(F)cc2c(=O)c(C(=O)O)cn(C3CC3)c12 (stereo not drawn) [drawing 342] | –
17 | 0.06 (≈ 0.141 µM) | 0.25 (≈ 0.586 µM) | 0.008 (≈ 0.0188 µM) | 0.125 (≈ 0.293 µM) | COc1c(N2CCC(C(O)C(F)F)C2)c(F)cc2c(=O)c(C(=O)O)cn(C3CC3)c12 (stereo not drawn) [drawing 349] | –
18 | 0.03 (≈ 0.0738 µM) | 0.03 (≈ 0.0738 µM) | 0.002 (≈ 0.00492 µM) | 0.03 (≈ 0.0738 µM) | COc1c(N2CCC(C(O)CO)C2)c(F)cc2c(=O)c(C(=O)O)cn(C3CC3)c12 (stereo not drawn) [drawing 355] | –
19 | 0.25 (≈ 0.578 µM) | 0.25 (≈ 0.578 µM) | 0.015 (≈ 0.0347 µM) | 0.5 (≈ 1.16 µM) | COc1c(N2CCC(C(O)C3(O)CC3)C2)c(F)cc2c(=O)c(C(=O)O)cn(C3CC3)c12 (stereo not drawn) [drawing 361] | –
20 | 0.06 (≈ 0.148 µM) | 0.06 (≈ 0.148 µM) | 0.002 (≈ 0.00492 µM) | 0.06 (≈ 0.148 µM) | COc1c(N2C[C@@H](CO)[C@@H](CO)C2)c(F)cc2c(=O)c(C(=O)O)cn(C3CC3)c12 [drawing 403] | –
21 | 0.125 (≈ 0.308 µM) | 0.125 (≈ 0.308 µM) | 0.008 (≈ 0.0197 µM) | 0.125 (≈ 0.308 µM) | COc1c(N2C[C@H](CO)[C@@H](CO)C2)c(F)cc2c(=O)c(C(=O)O)cn(C3CC3)c12 [drawing 404] | –
